# Laboratory results published in patent publication US20130131161A1, “METHODS AND COMPOSITIONS FOR CARDIOVASCULAR DISEASES AND CONDITIONS” (priority 2009, published 2013).
# “And” between values parts separate entries of the source, which are not always exact repeats. Identical values can stand only once.
# System: Human umbilical vein endothelial cells (HUVECs)
# Experiment: eNOS activity analysis: NO, ONOO− and NO/ONOO− release from HUVECs of 50 genotyped donors in response to LA-419 (Example 2)
# Format: cell-based
# Details: LA-419 1 μM
# Method: Concurrent measurements of NO and ONOO^− were carried out with tandem electrochemical nanosensors combined into one working unit with a total diameter of 200-500 nm (FIG. 1). Their design was based on previously developed and well-characterized chemically modified carbon-fiber technology (Malinski and Taha, 1992; Lvovich and Scheeline, 1997). Each of the nanosensors was made by depositing a sensing material on the tip of a carbon fiber (length 4-5 μm, diameter 0.2-0.5 μm). The fibers were sealed with nonconductive epoxy and electrically connected to copper wires with conductive silver epoxy. A conductive film of polymeric nickel (II) tetrakis(3-methoxy-4-hydroxyphenyl)porphyrin for the NO-sensor and polymeric film of Mn (III) [2.2]paracyclophanylporphyrin was used for the ONOO^−-sensor.
# A module of NO/ONOO^− nanosensors (diameter 1-2 μm) with a platinum wire (0.1 mm) counter electrode and saturated calomel reference electrode (SCE) were applied. Differential pulse voltammetry (DPV) and amperometry were performed with a computer-based Gamry VFP600 multichannel potentiostat. DPV was used to measure the basal NO and ONOO^− concentrations, and amperometry was used to measure changes in NO and ONOO^− concentrations from its basal level with time. The DPV current at the peak potential characteristic for NO oxidation (0.65 V) and ONOO^− reduction (−0.45 V) was directly proportional to the local concentrations of these compounds in the immediate vicinity of the sensor. Linear calibration curves (current vs. concentration) were constructed for each sensor from 10 nM to 3 μM before and after measurements with aliquots of NO and ONOO^− standard solutions, respectively. The detection limit of the sensors was 1.0 nM.
# The quantification of each analyte (concentration in nM) was performed using a maximum current from amperograms and standard calibration curves. A reproducibility of measurements with nanosensors is relatively high (between 5-12%). […] The sensors were slowly raised 5±2 μm from the surface of a single endothelial cell. The eNOS agonist, calcium ionophore A23187 (CaI) as well as the different drugs were then added to the surrounding media at the cell surface with a nanoinjector that was also positioned by a computer controlled-micromanipulator.
# This example describes the genotype-specific response of the three major eNOS variants to 1 μM and 5 μM concentrations of LA-419. The three major genetic polymorphisms studied were the Glu298Asp variant (E298D or 894G→T) in exon 7 of […], the −786T→C variant in the promoter region, and the intron 4 polymorphism (VNTR). All of these variants have possible effects on the cardiovascular system and endothelial dysfunction. For this study, human umbilical vein endothelial cells (HUVECs) from 50 donors between 18 and 32 years of age were used.
# For the analysis several analysis techniques were employed. First, the effect of genotype on NO and ONOO^− release was explored within the different concentrations of LA-419 (control, 1 μM, 5 μM), calculated as the average peak release (nmols/L) of NO, ONOO^−, and NO/ONOO^−. The effect of genotype on the net increase in NO, ONOO^−, and NO/ONOO^− for LA-419 (1 μM and 5 μM) as compared to control was also measured. In addition, an analysis was done on the effect of genotype on the % change in NO, ONOO^−, and NO/ONOO^− production for LA-419 (1 μM and 5 μM), calculated as:
# % Change=[(avg. LA-419−avg. control)/(avg. control)]*100
# Finally, an evaluation was undertaken concerning the effect of genotype on the production of NO, ONOO^−, and NO/ONOO^− as the fold difference of control for LA-419 (1 μM and 5 μM), calculated as:
# Fold Difference=(avg. LA-419)/(avg. control)
# Within each calculation technique the results were compared for statistical significance using a non-parametric ANOVA Kruskal-Wallace test or a non-parametric Mann-Whitney U test. Statistical significance was set at a p-value <0.05 in a two-tailed distribution. […]
# [1] = HUVECs G894T + T-786C Combination of all genotypes other than G/G + T/T
# [2] = HUVECs G894T + T-786C variant G/G + T/C
# [3] = HUVECs G894T + T-786C variant G/G + T/T (Reference)
# [4] = HUVECs G894T + T-786C variant G/T + C/C
# [5] = HUVECs G894T + T-786C variant G/T + T/C
# [6] = HUVECs G894T + T-786C variant G/T + T/T
# [7] = HUVECs G894T + T-786C variant T/T + C/C
# [8] = HUVECs G894T + T-786C variant T/T + T/C
smiles,measurement,setting,value
"CC(=O)SC1COC2C(O[N+](=O)[O-])COC12 (stereo not drawn) [LA-419, S-(6-Nitro-oxi-hexahydro-furo[3,2-b]furan-3-1-il)thioacetate]",Net increase over control NO/ONOO− (mean ± sd),[1],−0.92 (0.90)
same,Net increase over control ONOO− (mean ± sd),[1],−42.43 (111.75) nmols/L
same,Peak release NO (mean ± sd),[1],390.03 (73.13) nmols/L
same,Peak release NO/ONOO− (mean ± sd),[1],1.29 (0.46)
same,Peak release ONOO− (mean ± sd),[1],331.26 (91.43) nmols/L
same,Net increase over control NO (mean ± sd),[2],5.33 (68.90) nmols/L
same,Net increase over control NO/ONOO− (mean ± sd),[2],−0.88 (0.63)
same,Net increase over control ONOO− (mean ± sd),[2],13.13 (106.46) nmols/L
same,Peak release NO (mean ± sd),[2],351.00 (88.83) nmols/L
same,Peak release NO/ONOO− (mean ± sd),[2],1.09 (0.51)
same,Peak release ONOO− (mean ± sd),[2],357.00 (94.18) nmols/L
same,Net increase over control NO (mean ± sd),[3],31.22 (71.86) nmols/L
same,Net increase over control NO/ONOO− (mean ± sd),[3],1.16 (9.12)
same,Net increase over control ONOO− (mean ± sd),[3],−32.54 (86.18) nmols/L
same,Peak release NO (mean ± sd),[3],374.30 (78.06) nmols/L
same,Peak release NO/ONOO− (mean ± sd),[3],1.19 (0.43)
same,Peak release ONOO− (mean ± sd),[3],338.98 (81.16) nmols/L
same,Net increase over control NO (mean ± sd),[4],−53.67 (0) nmols/L
same,Net increase over control NO/ONOO− (mean ± sd),[4],−0.24 (0)
same,Net increase over control ONOO− (mean ± sd),[4],228.33 (0) nmols/L
same,Peak release NO (mean ± sd),[4],334.67 (0) nmols/L
same,Peak release NO/ONOO− (mean ± sd),[4],0.64 (0)
same,Peak release ONOO− (mean ± sd),[4],526.67 (0) nmols/L
same,Net increase over control NO (mean ± sd),[5],76.26 (75.55) nmols/L
same,Net increase over control NO/ONOO− (mean ± sd),[5],−1.21 (1.06)
same,Net increase over control ONOO− (mean ± sd),[5],−81.10 (79.76) nmols/L
same,Peak release NO (mean ± sd),[5],420.44 (56.87) nmols/L
same,Peak release NO/ONOO− (mean ± sd),[5],1.44 (0.32)
same,Peak release ONOO− (mean ± sd),[5],302.82 (59.66) nmols/L
same,Net increase over control NO (mean ± sd),[6],28.92 (13.00) nmols/L
same,Net increase over control NO/ONOO− (mean ± sd),[6],−0.99 (1.06)
same,Net increase over control ONOO− (mean ± sd),[6],−2.83 (64.48) nmols/L
same,Peak release NO (mean ± sd),[6],409.67 (64.25) nmols/L
same,Peak release NO/ONOO− (mean ± sd),[6],1.37 (0.44)
same,Peak release ONOO− (mean ± sd),[6],321.58 (90.82) nmols/L
same,Net increase over control NO (mean ± sd),[7],20.67 (16.77) nmols/L
same,Net increase over control NO/ONOO− (mean ± sd),[7],−0.56 (0.56)
same,Net increase over control ONOO− (mean ± sd),[7],−42.44 (9.91) nmols/L
same,Peak release NO (mean ± sd),[7],334.11 (83.36) nmols/L
same,Peak release NO/ONOO− (mean ± sd),[7],0.96 (0.58)
same,Peak release ONOO− (mean ± sd),[7],398.00 (131.00) nmols/L
same,Net increase over control NO (mean ± sd),[8],20.83 (131.76) nmols/L
same,Net increase over control NO/ONOO− (mean ± sd),[8],0.07 (0.61)
same,Net increase over control ONOO− (mean ± sd),[8],−227.83 (117.62) nmols/L
same,Peak release NO (mean ± sd),[8],420.83 (4.48) nmols/L
same,Peak release NO/ONOO− (mean ± sd),[8],1.80 (0.16)
same,Peak release ONOO− (mean ± sd),[8],234.67 (23.10) nmols/L
same,"% Change Ratio, % Change NO/% Change ONOO− (mean ± sd)",HUVECs G894T variant G/G,0.76 (8.64)
same,Net increase over control NO (mean ± sd),HUVECs G894T variant G/G,23.26 (70.68) nmols/L and 23.26 (70.64) nmols/L
same,Net increase over control NO/ONOO− (mean ± sd),HUVECs G894T variant G/G,0.53 (7.59)
same,Net increase over control ONOO− (mean ± sd),HUVECs G894T variant G/G,−18.49 (93.20) nmols/L
same,Peak release NO (mean ± sd),HUVECs G894T variant G/G,367.13 (80.46) nmols/L
same,Peak release NO/ONOO− (mean ± sd),HUVECs G894T variant G/G,1.16 (0.45)
same,Peak release ONOO− (mean ± sd),HUVECs G894T variant G/G,344.53 (83.88) nmols/L
same,"% Change Ratio, % Change NO/% Change ONOO− (mean ± sd)",HUVECs G894T variant G/T,−1.15 (0.91)
same,Net increase over control NO (mean ± sd),HUVECs G894T variant G/T,58.52 (72.43) nmols/L
same,Net increase over control NO/ONOO− (mean ± sd),HUVECs G894T variant G/T,−1.12 (1.02)
same,Net increase over control ONOO− (mean ± sd),HUVECs G894T variant G/T,−46.52 (105.03) nmols/L
same,Peak release NO (mean ± sd),HUVECs G894T variant G/T,413.28 (58.46) nmols/L
same,Peak release NO/ONOO− (mean ± sd),HUVECs G894T variant G/T,1.38 (0.38)
same,Peak release ONOO− (mean ± sd),HUVECs G894T variant G/T,319.43 (81.89) nmols/L
same,Net increase over control NO (mean ± sd),HUVECs G894T variant G/T & T/T,50.30 (71.57) nmols/L
same,Net increase over control NO/ONOO− (mean ± sd),HUVECs G894T variant G/T & T/T,−0.93 (0.99)
same,Net increase over control ONOO− (mean ± sd),HUVECs G894T variant G/T & T/T,−61.75 (109.14) nmols/L
same,Peak release NO (mean ± sd),HUVECs G894T variant G/T & T/T,403.61 (63.52) nmols/L
same,Peak release NO/ONOO− (mean ± sd),HUVECs G894T variant G/T & T/T,1.36 (0.43)
same,Peak release ONOO− (mean ± sd),HUVECs G894T variant G/T & T/T,322.30 (90.85) nmols/L
same,"% Change Ratio, % Change NO/% Change ONOO− (mean ± sd)",HUVECs G894T variant T/T,−0.66 (1.02)
same,Net increase over control NO (mean ± sd),HUVECs G894T variant T/T,20.73 (66.94) nmols/L
same,Net increase over control NO/ONOO− (mean ± sd),HUVECs G894T variant T/T,−0.31 (0.61)
same,Net increase over control ONOO− (mean ± sd),HUVECs G894T variant T/T,−116.60 (117.55) nmols/L
same,Peak release NO (mean ± sd),HUVECs G894T variant T/T,368.80 (75.73) nmols/L
same,Peak release NO/ONOO− (mean ± sd),HUVECs G894T variant T/T,1.29 (0.63)
same,Peak release ONOO− (mean ± sd),HUVECs G894T variant T/T,332.67 (129.30) nmols/L
same,Net increase over control NO (mean ± sd),HUVECs Intron 4 variant a/a,−25.78 (104.49) nmols/L
same,Net increase over control NO/ONOO− (mean ± sd),HUVECs Intron 4 variant a/a,−0.11 (0.56)
same,Net increase over control ONOO− (mean ± sd),HUVECs Intron 4 variant a/a,26.11 (116.99) nmols/L
same,Peak release NO (mean ± sd),HUVECs Intron 4 variant a/a,360.56 (80.60) nmols/L
same,Peak release NO/ONOO− (mean ± sd),HUVECs Intron 4 variant a/a,0.97 (0.57)
same,Peak release ONOO− (mean ± sd),HUVECs Intron 4 variant a/a,421.11 (124.25) nmols/L
same,Net increase over control NO (mean ± sd),HUVECs Intron 4 variant b/a,56.57 (67.97) nmols/L
same,Net increase over control NO/ONOO− (mean ± sd),HUVECs Intron 4 variant b/a,0.28 (0.43)
